Among the data in PubChem BioAssay AID200 (DTP/NCI, 2004) are T/C values, retold here.

This assay deals with B6C3F1 mice, B16 melanoma ip, median survival T/C. The assay can be described thus: NCI In Vivo Anticancer Drug Screen. Data for tumor model B16 Melanoma (intraperitoneal) in B6C3F1 mice. The settings on record: endpoint: median survival time, higher = longer survival. The essentials: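 Mice bearing transplanted tumor were dosed with compound or vehicle, and survival was recorded. Activity is expressed as the treated-group measurement (T) divided by the vehicle control measurement (C).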

The mark [1] stands for this setting: dose: 50.0 mg/kg/injection, schedule: Q01DX009 (ip), vehicle: Klucel (hydroxypropylcellulose) (HPC).
[2] abbreviates: dose: 100.0 mg/kg/injection, schedule: Q01DX009 (ip), vehicle: Klucel (hydroxypropylcellulose) (HPC).
[3] abbreviates: dose: 200.0 mg/kg/injection, schedule: Q01DX009 (ip), vehicle: Klucel (hydroxypropylcellulose) (HPC).
[4] abbreviates: dose: 400.0 mg/kg/injection, schedule: Q01DX009 (ip), vehicle: Klucel (hydroxypropylcellulose) (HPC).
Where [5] appears, read: dose: 25.0 mg/kg/injection, schedule: Q01DX009 (ip), vehicle: Klucel (hydroxypropylcellulose) (HPC).
[6] abbreviates: dose: 25.0 mg/kg/injection, schedule: Q01DX009 (ip), vehicle: saline with Tween-80.
Setting [7] is: dose: 50.0 mg/kg/injection, schedule: Q01DX009 (ip), vehicle: saline with Tween-80.
The mark [8] stands for this setting: dose: 100.0 mg/kg/injection, schedule: Q01DX009 (ip), vehicle: saline.
Where [9] appears, read: dose: 200.0 mg/kg/injection, schedule: Q01DX009 (ip), vehicle: saline.
Setting [10] is: dose: 100.0 mg/kg/injection, schedule: Q01DX009 (ip), vehicle: saline with Tween-80.
Where [11] appears, read: dose: 200.0 mg/kg/injection, schedule: Q01DX009 (ip), vehicle: saline with Tween-80.

Where “and” joins values, the source holds several entries; their conditions need not be identical. Identical values can stand only once. Inconclusive results and toxic doses are left out.

Turning to `CCCC1CC(C(=O)NC(C(C)O)C2OC(SC)C(O)C(O)C2O)N(C)C1` (stereo not drawn), the T/C is 113 % of control under setting [1], 95 % of control under setting [2], 100 % of control under setting [3] and 89 % of control under setting [4].

As for `O=NN(CCCl)C(=O)NC1[C@H](O)CCC[C@@H]1O` (stereo partly drawn), the T/C (dose: 0.62 mg/kg/injection, schedule: Q01DX009 (ip), vehicle: saline) was 159 % of control; the T/C (dose: 1.25 mg/kg/injection, schedule: Q01DX009 (ip), vehicle: saline) is 225 % of control; the T/C (dose: 2.5 mg/kg/injection, schedule: Q01DX009 (ip), vehicle: saline) was 251 % of control; the T/C (dose: 5.0 mg/kg/injection, schedule: Q01DX009 (ip), vehicle: saline) was 190 % of control.

On to `CN1CCc2c(c3ccccc3c3ccccc23)C1`, for which the T/C was 116 % of control and 94 % of control (dose: 3.12 mg/kg/injection, schedule: Q01DX009 (ip), vehicle: Klucel (hydroxypropylcellulose) (HPC)); 87 % of control and 99 % of control (dose: 6.25 mg/kg/injection, schedule: Q01DX009 (ip), vehicle: Klucel (hydroxypropylcellulose) (HPC)); 88 % of control and 102 % of control and 106 % of control (dose: 12.5 mg/kg/injection, schedule: Q01DX009 (ip), vehicle: Klucel (hydroxypropylcellulose) (HPC)); 90 % of control and 102 % of control under setting [5]; 116 % of control and 97 % of control and 102 % of control under setting [1]; 118 % of control and 92 % of control under setting [2].

With `Nc1ccc(Cn2ccc3c4c(N)nc(N)nc4ccc32)cc1`, the T/C is, setting by setting: (dose: 1.25 mg/kg/injection, schedule: Q01DX009 (ip), vehicle: saline with Tween-80) 95 % of control and 100 % of control; (dose: 2.5 mg/kg/injection, schedule: Q01DX009 (ip), vehicle: saline with Tween-80) 110 % of control and 99 % of control; (dose: 5.0 mg/kg/injection, schedule: Q01DX009 (ip), vehicle: saline with Tween-80) 99 % of control and 105 % of control; (dose: 10.0 mg/kg/injection, schedule: Q01DX009 (ip), vehicle: saline with Tween-80) 111 % of control and 119 % of control.

`CCS(=O)(=O)OCCCCOS(=O)(=O)CC`: the T/C runs as follows: under setting [6], 97 % of control; under setting [7], 100 % of control.

With `CCC(C)C(NC(=O)OC(C)(C)C)C(=O)O` (stereo not drawn), the T/C is 99 % of control under setting [2], 92 % of control under setting [3] and 87 % of control under setting [4].

Regarding `CN(C)CCc1ccc(O)cc1`, the T/C was 89 % of control under setting [8] and 92 % of control under setting [9].

With `NC(=O)CCC(NC(=O)OCC1c2ccccc2-c2ccccc21)C(=O)O` (stereo not drawn), the T/C runs as follows: under setting [2], 98 % of control; under setting [3], 93 % of control; under setting [4], 94 % of control.

On to `ClC1C(Cl)C(Cl)C(Cl)C(Cl)C1Cl` (stereo not drawn), for which the T/C was 88 % of control and 90 % of control (dose: 3.12 mg/kg/injection, schedule: Q01DX009 (ip), vehicle: saline with Tween-80); 109 % of control and 91 % of control (dose: 6.25 mg/kg/injection, schedule: Q01DX009 (ip), vehicle: saline with Tween-80); 107 % of control (dose: 12.5 mg/kg/injection, schedule: Q01DX009 (ip), vehicle: saline with Tween-80); 100 % of control under setting [5]; 92 % of control and 97 % of control under setting [6]; 100 % of control under setting [1]. Also, the T/C under setting [7] is 93 % of control, the T/C under setting [2] is 105 % of control, the T/C under setting [3] is 111 % of control and the T/C under setting [4] was 107 % of control.

Take `CC(NC(=O)C(CO)NC(=O)CN)C(=O)O` (stereo not drawn): the T/C is 98 % of control under setting [2], 98 % of control under setting [3] and 98 % of control under setting [4].

In the case of `C1CN(P2(N3CC3)=NP(N3CC3)(N3CC3)=NP(N3CC3)(N3CC3)=N2)CCO1` (stereo not drawn), the T/C (dose: 1.0 mg/kg/injection, schedule: Q01DX009 (ip), vehicle: saline) is 87 % of control and 96 % of control; the T/C (dose: 1.0 mg/kg/injection, schedule: Q02DX009 (ip), vehicle: saline) is 88 % of control and 106 % of control; the T/C (dose: 2.0 mg/kg/injection, schedule: Q01DX009 (ip), vehicle: saline) is 87 % of control and 105 % of control; the T/C (dose: 2.0 mg/kg/injection, schedule: Q02DX009 (ip), vehicle: saline) is 114 % of control and 92 % of control; the T/C (dose: 4.0 mg/kg/injection, schedule: Q01DX009 (ip), vehicle: saline) is 101 % of control; the T/C (dose: 4.0 mg/kg/injection, schedule: Q02DX009 (ip), vehicle: saline) was 103 % of control. Also, the T/C is 110 % of control (dose: 8.0 mg/kg/injection, schedule: Q01DX009 (ip), vehicle: saline); 109 % of control and 121 % of control (dose: 8.0 mg/kg/injection, schedule: Q02DX009 (ip), vehicle: saline); 179 % of control (dose: 16.0 mg/kg/injection, schedule: Q01DX009 (ip), vehicle: saline); 169 % of control (dose: 16.0 mg/kg/injection, schedule: Q02DX009 (ip), vehicle: saline); 182 % of control and 205 % of control (dose: 32.0 mg/kg/injection, schedule: Q01DX009 (ip), vehicle: saline).

As for `O=C(O)C1CCCN1C(=O)OCc1ccccc1` (stereo not drawn), the T/C is 97 % of control under setting [1] and 89 % of control under setting [3].

On to `ClC1(Cl)Cc2ccccc21`, for which the T/C (dose: 18.0 mg/kg/injection, schedule: Q01DX009 (ip), vehicle: saline with Tween-80) is 105 % of control; the T/C under setting [6] was 122 % of control; the T/C (dose: 30.0 mg/kg/injection, schedule: Q01DX009 (ip), vehicle: saline with Tween-80) is 107 % of control; the T/C under setting [7] was 99 % of control; the T/C (dose: 83.33 mg/kg/injection, schedule: Q01DX009 (ip), vehicle: saline with Tween-80) is 103 % of control; the T/C (dose: 138.88 mg/kg/injection, schedule: Q01DX009 (ip), vehicle: saline with Tween-80) was 100 % of control.

Turning to `CCN(CC)CC[n+]1ccc2c(C)c3[nH]c4ccc(O)cc4c3c(C)c2c1`, the T/C is 175 % of control (dose: 3.12 mg/kg/injection, schedule: Q01DX009 (ip), vehicle: saline); 151 % of control and 171 % of control (dose: 6.25 mg/kg/injection, schedule: Q01DX009 (ip), vehicle: saline); 151 % of control (dose: 6.25 mg/kg/injection, schedule: Q01DX009 (ip), vehicle: suspension in saline).

For `CC(=O)OC1C2CCC3C(C)(O)C4CC(O)C(C)(C)C4(O)C(O)CC13CC2(C)O` (stereo not drawn), the T/C (dose: 0.25 mg/kg/injection, schedule: Q01DX009 (ip), vehicle: Klucel (hydroxypropylcellulose) (HPC)) was 111 % of control; the T/C (dose: 0.5 mg/kg/injection, schedule: Q01DX009 (ip), vehicle: Klucel (hydroxypropylcellulose) (HPC)) is 100 % of control; the T/C (dose: 1.0 mg/kg/injection, schedule: Q01DX009 (ip), vehicle: Klucel (hydroxypropylcellulose) (HPC)) was 121 % of control.

As for `c1ccc(-c2cc3cc4ccccc4cn3c2)cc1`, the T/C under setting [7] is 110 % of control; the T/C under setting [10] is 118 % of control; the T/C under setting [11] is 116 % of control; the T/C (dose: 400.0 mg/kg/injection, schedule: Q01DX009 (ip), vehicle: saline with Tween-80) is 105 % of control; the T/C (dose: 800.0 mg/kg/injection, schedule: Q01DX009 (ip), vehicle: saline with Tween-80) was 108 % of control.

In the case of `c1ccc(CN2CCOC2)cc1`, the T/C runs as follows: (dose: 12.5 mg/kg/injection, schedule: Q01DX009 (ip), vehicle: saline) 100 % of control and 101 % of control; (dose: 25.0 mg/kg/injection, schedule: Q01DX009 (ip), vehicle: saline) 101 % of control and 108 % of control; (dose: 50.0 mg/kg/injection, schedule: Q01DX009 (ip), vehicle: saline) 98 % of control and 102 % of control; under setting [8], 112 % of control and 102 % of control; under setting [9], 113 % of control.

With `COC(=O)[C@@]12OC[C@]34[C@H]([C@@H](O)[C@@H]1O)[C@@]1(C)CC(=O)C(O)=C(C)[C@@H]1C[C@H]3OC(=O)[C@H](OC(=O)/C=C(\C)C(C)CO)[C@@H]24` (stereo partly drawn), the T/C (dose: 6.0 mg/kg/injection, schedule: Q01DX009 (ip), vehicle: saline + alcohol) was 174 % of control; the T/C (dose: 8.0 mg/kg/injection, schedule: Q01DX009 (ip), vehicle: saline + alcohol) is 161 % of control and 173 % of control.

Take `Cc1ccc(NCCN(C)C)c2c(=O)c3cc(O)ccc3sc12`: the T/C was 164 % of control (dose: 12.0 mg/kg/injection, schedule: Q01DX009 (ip), vehicle: Klucel (hydroxypropylcellulose) (HPC)); 183 % of control under setting [5]; 87 % of control under setting [1].

Take `O=C(NC(Cc1cn(Cc2ccccc2)cn1)C(=O)O)OCC1c2ccccc2-c2ccccc21` (stereo not drawn): the T/C runs as follows: under setting [2], 111 % of control; under setting [3], 103 % of control; under setting [4], 115 % of control.

Consider `Nc1ccc2ccc(NS(=O)(=O)N3CCCCC3)cc2c1`, for which the T/C reads like this: under setting [6], 110 % of control; under setting [7], 98 % of control; under setting [10], 111 % of control; under setting [11], 107 % of control.
